Common to all, as to test: inhibition of tumour cell growth, NCI panel, 48 h
Test [1] relates to SNB-75 CNS.
Test [2] deals with A549 NSCLC.
Test [3] deals with CCRF-CEM leukemia.
The subject of test [4] is SW-620 colon.
In test [5] the test system is SNB-19 CNS.
Test [6] has as its system SK-MEL-2 melanoma.
Test [7] has as its system HCT-15 colon.
For test [8], the system named is HS 578T breast.
Test [9] concerns T-47D breast.
The test system of test [10] is MCF7 breast.

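96-well plates; 48 h exposure; 5 concentrations. Endpoints by linear interpolation between flanking doses. Not reached: highest tested concentration assigned. Abbreviation: GI50, concentration required for 50% inhibition of growth. TGI marks complete inhibition of growth.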 A value given as a limit tells only on which side of the number the result lay.

With `Cc1ccc(NC(=O)/C(=N/NC(=O)CC#N)C2C(=O)N(c3ccccc3)N=C2N)cc1C` (configuration not stated), the TGI in [1], in test [2], in [3], in [4], in [5] and in [6] was more than 100 µM in each case. Besides, in [7], the TGI was more than 100 µM.

With `N#C/C(=C\c1ccc(Br)cc1)n1nnc2cc(F)c(F)cc21`, the GI50 is 2.71 µM in [8]; 2.14 µM in test [2]; 1.27 µM in test [9]; 1.48 µM in test [3]; 1.55 µM in test [4]; 1.64 µM in test [5]. Moreover, the values for the GI50 in test [6] and in test [7] were 1.76 µM and 1.34 µM, respectively. Further, the TGI in test [8] was determined as 8.3 µM; in test [2], 5.62 µM; in [9], 4.08 µM; in test [3] it was 8.81 µM; in test [4], 3.32 µM; in test [5], 3.07 µM. Moreover, the TGI in test [6] was 3.4 µM; in [7] it was 2.93 µM.

`Cc1cccc(Oc2ccc(Nc3ncnc4ccc(NC(=O)CN5CCN(C)CC5)cc34)cc2Cl)c1`: the GI50 in [8] was 1.77 µM; in test [1], 1.44 µM; in [10], 1.51 µM; in test [3], 2.06 µM; in test [4] it was 1.69 µM; in test [5] it was 1.95 µM. The GI50 is 1.87 µM in test [6] and 1.35 µM in [7]. The TGI in test [8] was found to be 4.28 µM; in test [1], 2.81 µM; in [10] it was 2.99 µM; in test [3], 5.21 µM; in test [4] it was 3.27 µM; in test [5] it was 4.79 µM. Moreover, the results for the TGI in test [6] and in test [7] were 3.64 µM and 2.76 µM, respectively.

In the case of `NC(=S)N/N=C1\C(=O)N(c2cccc([N+](=O)[O-])c2)C(=O)C1C(=O)Nc1cccc([N+](=O)[O-])c1` (configuration not stated), the TGI in [1], in test [2], in test [3], in [4], in test [5] and in test [6] was more than 100 µM in each case. Besides, the TGI in test [7] is more than 100 µM.

Take `C/C=C/C/C=C/CCC(=O)C1OC1C(N)=O` (configuration not stated): the TGI in [8] is 76.2 µM; in test [1], 27.8 µM; in test [2], 56 µM; in test [10], 30.6 µM; in test [3], 98.3 µM; in test [4], 42.3 µM. Also, the TGI in test [5] was 32.1 µM; in test [6], 32.5 µM; in test [7] it was 25.9 µM.

Take `NC1=NN(c2ccccc2)C(=O)C1C(=O)C(=O)Nc1cccc(C(F)(F)F)c1` (configuration not stated): the TGI in test [2], in [3], in [4], in test [5], in test [6] and in test [7] was more than 100 µM in each case.

As to `CC(=O)Oc1cc2c(=O)oc3c(OC(C)=O)c(OC(C)=O)c(OC(C)=O)c4c(=O)oc(c1OC(C)=O)c2c34`, the TGI in test [1] was more than 100 µM; in [2], more than 100 µM; in test [3], 63.3 µM; in test [4], more than 100 µM; in test [5], more than 100 µM; in [6] it was more than 100 µM. For the same compound, in test [7], the TGI was more than 100 µM.

`CC1CC(C)C(=O)C(C(=O)CC2CC(=O)NC2=O)C1` (configuration not stated): the TGI in [1], in test [2], in test [3], in [4] and in test [5] was more than 100 µM each time.

For the compound `O=C1C(Br)=C(c2ccccc2)C(c2ccccc2)=C1c1ccccc1`, the TGI is 40.5 µM in test [8]; 12.9 µM in test [1]; 28.1 µM in [2]; 7.68 µM in test [10]; 2.02 µM in test [3]; 3.26 µM in [4]. The values for the TGI in [5], in test [6] and in [7] were 24.2 µM, 14.4 µM and 4.03 µM, respectively.

As for `N#Cc1c(SCc2ccccc2)nc2[nH]c(=S)[nH]c(=S)c2c1-c1ccco1`, the GI50 in test [8] is 70.6 µM; in [1], more than 100 µM; in test [2] it was 64.1 µM; in test [10] it was 28.4 µM; in [4], 33.9 µM; in [5], 62.2 µM. The GI50 in [6] was more than 100 µM; in [7] it was 27.6 µM. The TGI in [8], in test [1], in test [2], in test [10], in test [4] and in test [5] was more than 100 µM throughout. In addition, the TGI in test [6] and in test [7] was more than 100 µM each time.

Regarding `C/C(=N\[N+](C)(C)C)C(c1ccccc1)C1(c2ccccc2)C(c2ccccc2)=C1c1ccccc1` (configuration not stated), the TGI in test [2], in test [3], in [4], in test [5], in test [6] and in test [7] was more than 100 µM throughout.

Turning to `O=C(Nc1ccc(N=Nc2ccccc2)cc1)Sc1ccccc1C(=O)O`, the TGI in test [1], in test [2], in [4], in [5], in test [6] and in [7] was more than 100 µM throughout.

For the compound `COc1ccc(/C(Cl)=C(\C=O)c2cc(OC)c(OC)c(OC)c2)cc1OC`, the TGI was more than 100 µM in [8]; more than 28.1 µM in [1]; more than 100 µM in [2]; more than 100 µM in [9]; more than 100 µM in test [3]; more than 100 µM in test [4]. In addition, the TGI is more than 100 µM in test [5], more than 90.5 µM in test [6] and more than 100 µM in test [7].

As for `CCC12CC[C@H](C#N)N3CCc4c(n(c5ccccc45)C(=O)C1)C32` (some centres not stated), the TGI in test [1] stood at 27.6 µM; in [2], 61.3 µM; in test [3], 44.3 µM; in test [4], 51.7 µM; in test [6], 31.9 µM; in [7] it was 20.3 µM.

Consider `O[C@H]1[C@H]2[C@H](O)CCCN2C[C@H]1O`, for which the TGI in test [1], in [2], in [3], in [4], in test [5] and in test [6] was more than 100 µM each time. The same compound came in with a TGI in [7] of more than 100 µM.

(Values after PubChem BioAssay (NCI).)
